Results taken from paper PMC10344949, “Arachidonic acid reverses cholesterol and zinc inhibition of human voltage-gated proton channels” (The Journal of Biological Chemistry, 2023).

Target: T1, hHv1 (human voltage-gated proton channel) (Homo sapiens, UniProt Q96D96)
T1 construct: gene HVCN1; no truncation stated
T1 sequence (Q96D96 1-273): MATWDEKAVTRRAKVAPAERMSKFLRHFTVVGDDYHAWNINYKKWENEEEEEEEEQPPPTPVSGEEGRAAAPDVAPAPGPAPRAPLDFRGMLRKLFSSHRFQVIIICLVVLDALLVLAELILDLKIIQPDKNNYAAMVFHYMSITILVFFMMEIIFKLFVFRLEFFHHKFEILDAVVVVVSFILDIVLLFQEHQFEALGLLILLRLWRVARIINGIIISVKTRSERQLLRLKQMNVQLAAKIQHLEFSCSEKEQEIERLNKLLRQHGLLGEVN
Experiment: liposome proton flux assay (ACMA quenching), Hill fit
Format: biochemical
Settings: read-out: half activation concentration (Kd)

For `CCCCC/C=C\C/C=C\C/C=C\C/C=C\CCCC(=O)O` [arachidonic acid], the EC50 was 7.2 µM.
